Among the data in patent US10508085B2, “Compounds and methods for IDO and TDO modulation, and indications therefor” (Plexxikon Inc., priority 2016, dated 2019) are IC50 values, retold here.

What is called IC50 is the point on the concentration scale where inhibition reaches its midpoint.

The structures appear in SMILES notation. A value given as a limit tells only on which side of the number the result lay.

For assay [1], the target named is T1, Human Indoleamine 2,3-dioxygenase (IDO) (Homo sapiens, UniProt P14902).
T1 construct: His tag (N); made in house; host or cells: E. coli
Kind of assay: Human IDO enzymatic assay (kynurenine level). It is filed as biochemical. To be noted: 6 nM IDO, 10 μM L-Trp; geometric mean; read-out: IDO1 GMean: IC50 (μM) (Biochemical Assay). The method, boiled down:
(§1)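 N-terminally His-tagged enzymes expressed in E. coli were run in 50 mM sodium phosphate pH 6.5 with 10 mM ascorbate, catalase and Tween 20. IDO: 6 nM enzyme, 10 μM L-Trp, 5 μM methylene blue, 20 min RT. TDO: 1 nM enzyme, 350 μM L-Trp, 0.4 μM methylene blue, 70 min RT.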

Assay [2] deals with T2, Human Tryptophan 2,3-dioxygenase (TDO) (Homo sapiens, UniProt P48775).
T2 construct: His tag (N); made in house; host or cells: E. coli
In words: Human TDO enzymatic assay (kynurenine level). It is filed as biochemical. Particulars: 1 nM TDO, 350 μM L-Trp; geometric mean; read-out: TDO GMean: IC50 (μM) (Biochemical Assay). The method, boiled down:
as §1

Assay [3] has as its target T3, human IDO (IDO1-expressing HEK293 cells) (Homo sapiens, UniProt P14902).
T3 construct: expressed in transfected cells
Kind of assay: Cell based kynurenine assay, IDO1-expressing HEK293 cell clones. Particulars: IDO1-expressing HEK293 cells, 24 hours incubation; geometric mean; read-out: HEK293 IDO1 Kynurenine GMean IC50 (μM) (Cellular Assay). The method, boiled down:
(§2)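 HEK293 clones stably expressing human IDO1 or human TDO (CMV promoter), 2.5×10^4 cells/well, given serial compound dilutions for 24 h. Kynurenine measured in supernatant; inhibition relative to cell/0.2% DMSO and media-only controls. IC50 by nonlinear regression.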

The target in assay [4] is T4, human TDO (TDO-expressing HEK293 cells) (Homo sapiens, UniProt P48775).
T4 construct: expressed in transfected cells
Kind of assay: Cell based kynurenine assay, TDO-expressing HEK293 cell clones. To be noted: TDO-expressing HEK293 cells, 24 hours incubation; geometric mean; read-out: HEK293 TDO Kynurenine GMean IC50 (μM) (Cellular Assay). The procedure, abridged: as §2

T2 sequence (P48775 whole entry): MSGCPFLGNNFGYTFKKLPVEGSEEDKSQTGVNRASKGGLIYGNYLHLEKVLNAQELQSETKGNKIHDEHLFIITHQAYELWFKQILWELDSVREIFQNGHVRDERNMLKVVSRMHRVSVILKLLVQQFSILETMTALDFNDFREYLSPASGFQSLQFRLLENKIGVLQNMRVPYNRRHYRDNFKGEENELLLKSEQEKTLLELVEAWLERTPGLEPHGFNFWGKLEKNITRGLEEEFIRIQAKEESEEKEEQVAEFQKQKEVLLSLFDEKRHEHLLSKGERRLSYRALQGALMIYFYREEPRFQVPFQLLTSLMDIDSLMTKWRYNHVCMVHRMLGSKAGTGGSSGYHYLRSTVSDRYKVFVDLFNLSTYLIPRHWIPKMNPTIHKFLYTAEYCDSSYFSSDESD
T4 sequence (P48775 whole entry): as above
T3 sequence (P14902 whole entry): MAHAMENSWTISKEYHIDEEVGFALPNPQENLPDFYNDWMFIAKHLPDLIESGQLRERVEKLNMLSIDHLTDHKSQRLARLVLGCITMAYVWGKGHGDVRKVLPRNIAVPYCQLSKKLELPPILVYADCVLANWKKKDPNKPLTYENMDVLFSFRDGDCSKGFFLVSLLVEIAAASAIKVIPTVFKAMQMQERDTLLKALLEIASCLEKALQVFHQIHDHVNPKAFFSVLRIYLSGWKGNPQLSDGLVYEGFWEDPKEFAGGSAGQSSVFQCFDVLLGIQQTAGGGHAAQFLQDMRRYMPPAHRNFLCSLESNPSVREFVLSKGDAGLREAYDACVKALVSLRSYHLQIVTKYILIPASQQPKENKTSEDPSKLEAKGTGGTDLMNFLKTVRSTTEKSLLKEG
T1 sequence (P14902 whole entry): as above

Regarding `COCC(=O)N1CCC(C(F)(F)C(O)c2c(F)c(Cl)cc3cn[nH]c23)CC1` (stereo not drawn) [Compound P-0376, 1-(4-(2-(5-chloro-6-fluoro-1H-indazol-7-yl)-1,1-difluoro-2-hydroxyethyl)piperidin-1-yl)-2-methoxyethan-1-one], the IC50 in assay [1], in assay [2], in assay [3] and in assay [4] was 0.0001 to 10 µM each time.
`CC(C)C(=O)N1CCC(C(F)(F)C(O)c2c(F)c(Cl)cc3cn[nH]c23)CC1` (stereo not drawn) [Compound P-0377, 1-(4-(2-(5-chloro-6-fluoro-1H-indazol-7-yl)-1,1-difluoro-2-hydroxyethyl)piperidin-1-yl)-2-methylpropan-1-one]: the concentration for half-maximal inhibition (IC50) in assay [1], in assay [2], in assay [3] and in assay [4] was 0.0001 to 10 µM throughout.
Regarding `O=C(NCC(F)(F)F)N1CCC(C(F)(F)C(O)c2c(F)c(Cl)cc3cn[nH]c23)CC1` (stereo not drawn) [Compound P-0378, 4-(2-(5-chloro-6-fluoro-1H-indazol-7-yl)-1,1-difluoro-2-hydroxyethyl)-N-(2,2,2-trifluoroethyl) piperidine-1-carboxamide], the IC50 in assay [1], in assay [2], in assay [3] and in assay [4] was 0.0001 to 10 µM each time.
As for `NC(=O)N1CCC(C(F)(F)C(O)c2c(F)c(Cl)cc3cn[nH]c23)CC1` (stereo not drawn) [Compound P-0379, 4-(2-(5-chloro-6-fluoro-1H-indazol-7-yl)-1,1-difluoro-2-hydroxyethyl) piperidine-1-carboxamide], the IC50 in assay [1], in assay [2], in assay [3] and in assay [4] was 0.0001 to 10 µM each time.
In the case of `OC1(c2cc(Cl)cc3cn[nH]c23)C2CC3CC(C2)CC1C3` [Compound P-0380, (1R,2R,5S)-2-(5-chloro-1H-indazol-7-yl)adamantan-2-ol], the IC50 in assay [1] was 0.0001 to 10 µM; in assay [2], 0.0001 to 10 µM; in assay [3], more than 10 µM; in assay [4], 0.0001 to 10 µM.
On to `O[C@H](c1cc(Cl)cc2cn[nH]c12)C12CCC(CC1)CC2` [Compound P-0381, (S)-bicyclo[2.2.2] octan-1-yl(5-chloro-1H-indazol-7-yl)methanol], for which the concentration for half-maximal inhibition (IC50) in assay [1], in assay [2], in assay [3] and in assay [4] was 0.0001 to 10 µM each time.
In the case of `O[C@@H](c1cc(Cl)cc2cn[nH]c12)C12CCC(CC1)CC2` [Compound P-0382, (R)-bicyclo[2.2.2] octan-1-yl(5-chloro-1H-indazol-7-yl)methanol], the half-maximal inhibitory concentration (IC50) is 0.0001 to 10 µM in assay [1], more than 200 µM in assay [2], 0.0001 to 10 µM in assay [3] and more than 10 µM in assay [4].
Turning to `CC(C)(C)OC(=O)N1CCC(C(C)(C)[C@H](O)c2c(F)c(Cl)cc3cn[nH]c23)CC1` [Compound P-0383, tert-butyl (S)-4-(1-(5-chloro-6-fluoro-1H-indazol-7-yl)-1-hydroxy-2-methylpropan-2-yl)piperidine-1-carboxylate], the IC50 in assay [1], in assay [2], in assay [3] and in assay [4] was 0.0001 to 10 µM each time.
For the molecule `CC(C)(C)OC(=O)N1CCC(C(C)(C)[C@@H](O)c2c(F)c(Cl)cc3cn[nH]c23)CC1` [Compound P-0384, tert-butyl (R)-4-(1-(5-chloro-6-fluoro-1H-indazol-7-yl)-1-hydroxy-2-methylpropan-2-yl)piperidine-1-carboxylate], the half-maximal inhibitory concentration (IC50) in assay [1] is 0.0001 to 10 µM; in assay [2], 0.0001 to 10 µM; in assay [3], more than 10 µM; in assay [4], more than 10 µM.
As to `CC(C)(C1CCN(C(=O)NC(=O)c2ccccc2)CC1)C(O)c1cc(Cl)cc2cn[nH]c12` (stereo not drawn) [Compound P-0385, N-benzoyl-4-(1-(5-chloro-1H-indazol-7-yl)-1-hydroxy-2-methylpropan-2-yl)piperidine-1-carboxamide], the IC50 in assay [1], in assay [2], in assay [3] and in assay [4] was 0.0001 to 10 µM each time.
Take `CC(C)(C1CCN(C(=O)NCc2ccccc2)CC1)C(O)c1cc(Cl)cc2cn[nH]c12` (stereo not drawn) [Compound P-0386, N-benzyl-4-(1-(5-chloro-1H-indazol-7-yl)-1-hydroxy-2-methylpropan-2-yl)piperidine-1-carboxamide]: the IC50 in assay [1], in assay [2], in assay [3] and in assay [4] was 0.0001 to 10 µM in each case.
Regarding `CC(C)(C1CCN(C(=O)NC2CCC2)CC1)C(O)c1cc(Cl)cc2cn[nH]c12` (stereo not drawn) [Compound P-0387, 4-(1-(5-chloro-1H-indazol-7-yl)-1-hydroxy-2-methylpropan-2-yl)-N-cyclobutylpiperidine-1-carboxamide], the IC50 in assay [1], in assay [2], in assay [3] and in assay [4] was 0.0001 to 10 µM throughout.
For `COCCNC(=O)N1CCC(C(C)(C)C(O)c2cc(Cl)cc3cn[nH]c23)CC1` (stereo not drawn) [Compound P-0388, 4-(1-(5-chloro-1H-indazol-7-yl)-1-hydroxy-2-methylpropan-2-yl)-N-(2-methoxyethyl) piperidine-1-carboxamide], the half-maximal inhibitory concentration (IC50) in assay [1], in assay [2], in assay [3] and in assay [4] was 0.0001 to 10 µM in each case.
`CC(C)(C1CCN(C(=O)Nc2ccccn2)CC1)C(O)c1cc(Cl)cc2cn[nH]c12` (stereo not drawn) [Compound P-0389, 4-(1-(5-chloro-1H-indazol-7-yl)-1-hydroxy-2-methylpropan-2-yl)-N-(pyridin-2-yl)piperidine-1-carboxamide]: the IC50 in assay [1], in assay [2], in assay [3] and in assay [4] was 0.0001 to 10 µM each time.
As for `CC(C)(C1CCN(C(=O)Nc2ccnc(N3CCOCC3)c2)CC1)C(O)c1cc(Cl)cc2cn[nH]c12` (stereo not drawn) [Compound P-0390, 4-(1-(5-chloro-1H-indazol-7-yl)-1-hydroxy-2-methylpropan-2-yl)-N-(2-morpholinopyridin-4-yl)piperidine-1-carboxamide], the IC50 in assay [1], in assay [2], in assay [3] and in assay [4] was 0.0001 to 10 µM throughout.
For `CC(C)(C1CCN(C(=O)N2CCOCC2)CC1)C(O)c1cc(Cl)cc2cn[nH]c12` (stereo not drawn) [Compound P-0391, (4-(1-(5-chloro-1H-indazol-7-yl)-1-hydroxy-2-methylpropan-2-yl)piperidin-1-yl)(morpholino) methanone], the 50% inhibitory concentration (IC50) in assay [1], in assay [2], in assay [3] and in assay [4] was 0.0001 to 10 µM throughout.
On to `Cc1noc(C)c1NC(=O)N1CCC(C(C)(C)C(O)c2cc(Cl)cc3cn[nH]c23)CC1` (stereo not drawn) [Compound P-0392, 4-(1-(5-chloro-1H-indazol-7-yl)-1-hydroxy-2-methylpropan-2-yl)-N-(3,5-dimethylisoxazol-4-yl)piperidine-1-carboxamide], for which the 50% inhibitory concentration (IC50) in assay [1], in assay [2], in assay [3] and in assay [4] was 0.0001 to 10 µM in each case.
On to `CC(C)(C1CCN(C(=O)Nc2ccc(Cl)c(C(F)(F)F)c2)CC1)C(O)c1cc(Cl)cc2cn[nH]c12` (stereo not drawn) [Compound P-0393, 4-(1-(5-chloro-1H-indazol-7-yl)-1-hydroxy-2-methylpropan-2-yl)-N-(4-chloro-3-(trifluoromethyl)phenyl)piperidine-1-carboxamide], for which the IC50 in assay [1], in assay [2], in assay [3] and in assay [4] was 0.0001 to 10 µM each time.
Regarding `Cc1ccc(NC(=O)N2CCC(C(C)(C)C(O)c3cc(Cl)cc4cn[nH]c34)CC2)cc1Cl` (stereo not drawn) [Compound P-0394, 4-(1-(5-chloro-1H-indazol-7-yl)-1-hydroxy-2-methylpropan-2-yl)-N-(3-chloro-4-methylphenyl) piperidine-1-carboxamide], the IC50 in assay [1], in assay [2], in assay [3] and in assay [4] was 0.0001 to 10 µM in each case.
On to `CC(C)(C1CCN(C(=O)Nc2cc(Cl)cc(Cl)c2)CC1)C(O)c1cc(Cl)cc2cn[nH]c12` (stereo not drawn) [Compound P-0395, 4-(1-(5-chloro-1H-indazol-7-yl)-1-hydroxy-2-methylpropan-2-yl)-N-(3,5-dichlorophenyl) piperidine-1-carboxamide], for which the IC50 in assay [1], in assay [2], in assay [3] and in assay [4] was 0.0001 to 10 µM in each case.
Regarding `COc1cc(NC(=O)N2CCC(C(C)(C)C(O)c3cc(Cl)cc4cn[nH]c34)CC2)cc(OC)c1` (stereo not drawn) [Compound P-0396, 4-(1-(5-chloro-1H-indazol-7-yl)-1-hydroxy-2-methylpropan-2-yl)-N-(3,5-dimethoxyphenyl) piperidine-1-carboxamide], the IC50 in assay [1], in assay [2], in assay [3] and in assay [4] was 0.0001 to 10 µM each time.
